This is an account of results in article PMC11110133, “Thiophene-fused γ-lactams inhibit the SARS-CoV-2 main protease via reversible covalent acylation” (Chemical Science, 2024).

SMILES strings stand for the structures. Like-named read-outs stand apart in the source and are kept apart here.

Assay [1] addresses T1, isolated recombinant SARS-CoV-2 M^pro (Severe acute respiratory syndrome coronavirus 2, UniProt P0DTD1). The experiment in a line: SPE-MS SARS-CoV-2 Mpro inhibition assay. In kind it is biochemical. The following applies: for IC50: SPE-MS, SARS-CoV-2 M^pro 0.05 μM, substrate peptide 2.0 μM, mean ± SD of two independent runs (n = 2); for fold increase in M^pro inhibition potency relative to γ-lactam 7: relative to 7; for fold more efficient M^pro inhibition than γ-lactam 5: relative to reported γ-lactam 5; for fold more efficient M^pro inhibition than pyrazolidinone 6: relative to reported pyrazolidinone 6.

For assay [2], the target named is T1, isolated recombinant SARS-CoV-2 M^pro. In kind it is binding. Particulars: for covalent reaction with M^pro (protein-observed MS): M^pro 3.0 μM, γ-lactam 15 μM, 20 mM HEPES pH 7.5, 4 h incubation.
Assay [3] deals with M^pro. The following applies: mass spectrometric analyses; cited from earlier work.
The target in assay [4] is T1, isolated recombinant SARS-CoV-2 M^pro. Also noted: method as in PMID 35549342. The following applies: cited from earlier work; for IC50: reported M^pro inhibition.
Assay [5] deals with M^pro. Also on record: method as in PMID 37866713. Particulars: reported M^pro inhibition; cited from earlier work.

In the case of `CC(C)C1C(=O)N(S(C)(=O)=O)c2sccc21` (racemic) [16c], the IC50 (as a rule, the concentration needed to halve the response being measured) in assay [1] (read-out: IC50) is around 16 µM. Moreover, in assay [1] (relative to propyl-substituted 16b), the “fold less efficient M^pro inhibition than 16b” value is reported as around 5 fold.

For `CS(=O)(=O)N1C(=O)C(Cc2ccccc2)c2ccsc21` (racemic) [16d], the IC50 in assay [1] (read-out: IC50) was around 4 µM. `CS(=O)(=O)N1C(=O)C(CCC#N)c2ccsc21` (racemic) [16e]: in assay [1] (read-out: IC50), the half-inhibitory concentration (IC50) is around 2.7 µM. Same read-out and setting: in the case of `C=CCC1C(=O)N(S(C)(=O)=O)c2sccc21` (racemic) [16f] it was around 3.5 µM. As to `CS(=O)(=O)N1C(=O)C(CCC#N)c2ccsc21` (racemic) [C00007], the IC50 in assay [1] (read-out: IC50) came to 2.7 ± 0.1 µM. For `C=CCC1C(=O)N(S(C)(=O)=O)c2sccc21` (racemic) [C00009], the IC50 in assay [1] (read-out: IC50) turned out to be 3.5 ± 0.2 µM. Take `CC(C)C1C(=O)N(S(C)(=O)=O)c2sccc21` (racemic) [C00012]: the 50% inhibitory concentration (IC50) in assay [1] (read-out: IC50) was 16 ± 2 µM. On the same count and under the same terms, in the case of `CS(=O)(=O)N1C(=O)C(Cc2ccccc2)c2ccsc21` (racemic) [C00014] it was 4 ± 0.4 µM.

Regarding `CC1C(=O)N(S(C)(=O)=O)c2sccc21` (stereo not drawn) [16a], in assay [1], the “fold increase in M^pro inhibition potency relative to γ-lactam 7” value is around 2 fold. Also, the “complex observed after adding excess 24 to the M^pro:16a mixture (reversibility)” value in assay [2] (16a with M^pro 2 h at 0 °C (1 : 5), then 24 for 3 h at 0 °C, SPE-MS) was “not detected”. In addition, the “covalent reaction with the covalent M^pro:nirmatrelvir alkyne (24) complex (Cys145 blocked)” value in assay [2] (M^pro 3.0 μM pre-reacted with 24, then 16a 15 μM, 2 h) is listed as “does not covalently react”. In assay [2], the “covalent reaction with M^pro (protein-observed MS)” value is listed as “react covalently”.

Turning to `CCCC1C(=O)N(S(C)(=O)=O)c2sccc21` (stereo not drawn) [16b], the “covalent reaction with M^pro (protein-observed MS)” value in assay [2] is on record as “react covalently”. `CC1(C)C(=O)N(S(C)(=O)=O)c2sccc21` [17a]: the 50% inhibitory concentration (IC50) entry in assay [1] is recorded as “did not inhibit”. On to `C=CCC1(CC=C)C(=O)N(S(C)(=O)=O)c2sccc21` [17b], for which the IC50 result in assay [1] is given as “did not inhibit”. On the same count and under the same terms, next, `CC(=O)N1C(=O)Cc2ccsc21` [23a]: “ablated M^pro inhibition”. For the compound `O=C1Cc2ccsc2N1S(=O)(=O)Cc1ccccc1` [23b], the “fold increase in M^pro inhibition potency relative to γ-lactam 7” value in assay [1] is recorded as around 2 fold. The “covalent reaction with M^pro (protein-observed MS)” value in assay [2] is reported as “react covalently”. As for `O=C1Cc2ccsc2N1S(=O)(=O)c1ccccc1` [23c], the “fold increase in M^pro inhibition potency relative to γ-lactam 7” value in assay [1] is around 2 fold. With `COc1ccc(S(=O)(=O)N2C(=O)Cc3ccsc32)cc1` [23d], in assay [2], the “covalent reaction with M^pro (protein-observed MS)” value was “react covalently”. Take `O=C1Cc2ccsc2N1S(=O)(=O)c1ccc(C(F)(F)F)cc1` [23f]: in assay [1] (read-out: IC50), the half-maximal inhibitory concentration (IC50) was around 1.3 µM. Besides, in assay [1], the “fold increase in M^pro inhibition potency relative to γ-lactam 7” value was around 6 fold and the “fold more efficient M^pro inhibition than γ-lactam 5” value is listed as around 20 fold. The “fold more potent than γ-lactam 23c” value in assay [1] (relative to 23c) is around 3 fold. Besides, in assay [1] (relative to reported β-lactam 3), the “fold more efficient M^pro inhibition than β-lactam 3” value is listed as around 6 fold.

Regarding `CS(=O)(=O)N1C(=O)Cc2ccsc21` [C00001], the IC50 in assay [1] (read-out: IC50) amounted to 8.5 ± 1.4 µM. In the case of `CS(=O)(=O)N1C(=O)Cc2sccc21` [C00002], the half-maximal inhibitory concentration (IC50) in assay [1] (read-out: IC50) stood at 8.4 ± 0.5 µM. Take `CS(=O)(=O)N1C(=O)Cc2cscc21` [C00003]: in assay [1] (read-out: IC50), the IC50 was above 100 µM. Same read-out and setting: next, `CS(=O)(=O)n1c(=O)n(S(C)(=O)=O)c2cscc21` [C00004]: above 100 µM. The same measure, in the same setting: next, `CS(=O)(=O)N1C(=O)Cc2ccccc21` [C00005]: above 100 µM. On the same count and under the same terms, next, `CC1C(=O)N(S(C)(=O)=O)c2sccc21` (stereo not drawn) [C00006]: 3.9 ± 0.1 µM; `CC1(C)C(=O)N(S(C)(=O)=O)c2sccc21` [C00008]: above 100 µM; `CCCC1C(=O)N(S(C)(=O)=O)c2sccc21` (stereo not drawn) [C00010]: 3.2 ± 0.8 µM. In the case of `C=CCC1(CC=C)C(=O)N(S(C)(=O)=O)c2sccc21` [C00011], the IC50 in assay [1] (read-out: IC50) was above 100 µM. For `CS(=O)(=O)N1C(=O)C2(CC=CC2)c2ccsc21` [C00013], the IC50 in assay [1] (read-out: IC50) is 61 ± 4 µM. `CS(=O)(=O)N1C(=O)C2(CC=CC2)c2sccc21` [C00015]: the half-inhibitory concentration (IC50) in assay [1] (read-out: IC50) was above 100 µM.

On to `CS(=O)(=O)N1C(=O)Cc2ccsc21` [C00017], for which the IC50 in assay [1] (read-out: IC50) was determined as 8.5 ± 1.4 µM. As to `CC(=O)N1C(=O)Cc2ccsc21` [C00018], the IC50 in assay [1] (read-out: IC50) was above 100 µM. As to `O=C1Cc2ccsc2N1S(=O)(=O)Cc1ccccc1` [C00019], the IC50 in assay [1] (read-out: IC50) came to 4.3 ± 0.1 µM. Regarding `O=C1Cc2ccsc2N1S(=O)(=O)c1ccccc1` [C00020], in assay [1] (read-out: IC50), the half-maximal inhibitory concentration (IC50) turned out to be 4.7 ± 1.1 µM. As for `COc1ccc(S(=O)(=O)N2C(=O)Cc3ccsc32)cc1` [C00021], the concentration for half-maximal inhibition (IC50) in assay [1] (read-out: IC50) turned out to be 2.7 ± 0.2 µM.

For the compound `O=C1Cc2ccsc2N1S(=O)(=O)c1ccc([N+](=O)[O-])cc1` [C00022], the IC50 in assay [1] (read-out: IC50) came out at 4.4 ± 0.7 µM. Regarding `O=C1Cc2ccsc2N1S(=O)(=O)c1ccc(C(F)(F)F)cc1` [C00023], the 50% inhibitory concentration (IC50) in assay [1] (read-out: IC50) stood at 1.3 ± 0.1 µM.

For `CC1(C)C(C(=O)OCc2ccccc2)N2C(=O)C(NC(=O)COc3ccccc3)C2S1(=O)=O` (stereo not drawn) [compound 3, penicillin V sulfone benzyl ester], the “covalent reaction with M^pro (reported)” value in the assay on M^pro [3] was “covalent reaction of its β-lactam with the active site Cys145”. In addition, in assay [4], the half-maximal inhibitory concentration (IC50) was around 6.6 µM.

Turning to `CC1(C)C(C(=O)OCc2ccccc2)N2C(=O)C(NC(=O)COc3ccccc3)CC2S1(=O)=O` (stereo not drawn) [compound 5], the “covalent reaction with M^pro (reported)” value in the assay with M^pro [3] was “did not react to form a stable acyl–enzyme complex”. Moreover, the “fold less efficient M^pro inhibition than β-lactam 3” value in assay [4] (relative to β-lactam 3) was around 4 fold. The concentration for half-maximal inhibition (IC50) in assay [4] is around 26.1 µM. Consider `O=C(O)C1=C(C(=O)N(Cc2ccccc2)Cc2ccccc2)CN2C[C@H](NC(=O)[C@H](Cc3ccccc3)NC(=O)c3cc4ccccc4[nH]3)C(=O)N12` [compound 6], for which the IC50 in the assay on M^pro [5] is around 45 µM. In the case of `CS(=O)(=O)N1C(=O)Cc2ccsc21` [compound 7], the half-inhibitory concentration (IC50) in assay [1] (read-out: IC50) is around 8.5 µM. Besides, in assay [1], the “fold more efficient M^pro inhibition than pyrazolidinone 6” value was around 5 fold and the “fold more efficient M^pro inhibition than γ-lactam 5” value is around 3 fold. Besides, the “covalent reaction with M^pro (protein-observed MS)” value in assay [2] is reported as “react covalently”. On the same counts, the results for `CS(=O)(=O)N1C(=O)Cc2sccc21` [compound 8] are around 8.4 µM, around 5 fold, around 3 fold and “react covalently”.

As to `CS(=O)(=O)N1C(=O)Cc2cscc21` [compound 9], the half-inhibitory concentration (IC50) entry in assay [1] is “did not inhibit”. Same read-out and setting: next, `CS(=O)(=O)n1c(=O)n(S(C)(=O)=O)c2cscc21` [compound 10]: “did not result in inhibition”; `CS(=O)(=O)N1C(=O)Cc2ccccc21` [compound 11]: “did not inhibit”; `CS(=O)(=O)N1C(=O)C2(CC=CC2)c2ccsc21` [compound 18]: “did not efficiently inhibit”.

As to `CS(=O)(=O)N1C(=O)C2(CC=CC2)c2sccc21` [compound 19], the 50% inhibitory concentration (IC50) entry in assay [1] is on record as “did not efficiently inhibit”.
